Measured values published in patent US6593319B1, “Fusidic acid derivatives” (Leo Pharmaceutical Products, Ltd. A/S, priority 2001, dated 2003).

How the values were obtained:
Assay in all cases: MIC, agar diffusion method (European Pharmacopoeia 3rd Ed.)
Assay type in all cases: cell-based
S. aureus ATCC2977 = tested on: S. aureus ATCC2977
Method: (§1) The antibacterial activity of some of these compounds relative to fusidic acid appears from Table 2 showing MIC values for compounds of the invention. The method used is recommended by the European Pharmacopoeia 3rd Ed. (1997) for testing the potency of antibiotics. It is an agar diffusion method where the same volume of the tested solution is added to cavities in agar. The inhibition zones are a function of the concentration of the fusidic acid analogue used. All assays are run with fusidic acid (1) as the reference substance. The results in Table 2 differ from those of Table 1 due to the different experimental methods used.

[1] = tested on: Strep. sp. Gr.B Leo id. EF6
Method: as §1

S. aureus Leoid CJ234(R) = conditions: MRSA and Rifampicin resistant
Method: as §1

[2] = tested on: Strep. epidermis A. ATCC12228
Method: as §1

S. aureus ATCC6538P = tested on: S. aureus ATCC6538P
Method: as §1

[3] = tested on: Strep. faecalis ATCC10541
Method: as §1

[4] = tested on: Strep. faecium Leo id. E119(P); conditions: Penicillin resistant
Method: as §1

S. aureus Leo id. CJ232 = conditions: S. aureus Leo id. CJ232, MRSA
Method: as §1

Compound | MIC values (concentrations in μg/ml required for 90% inhibition) (S. aureus ATCC2977) | MIC values (concentrations in μg/ml required for 90% inhibition) [1] | MIC values (concentrations in μg/ml required for 90% inhibition) (S. aureus Leoid CJ234(R)) | MIC values (concentrations in μg/ml required for 90% inhibition) [2] | MIC values (concentrations in μg/ml required for 90% inhibition) (S. aureus ATCC6538P) | MIC values (concentrations in μg/ml required for 90% inhibition) [3] | MIC values (concentrations in μg/ml required for 90% inhibition) [4] | MIC values (concentrations in μg/ml required for 90% inhibition) (S. aureus Leo id. CJ232)
CC(=O)O[C@H]1C[C@@]2(C)[C@@H](C[C@@H](O)[C@H]3[C@@]4(C)CC[C@@H](O)[C@@H](C)[C@@H]4CC[C@@]32C)[C@H]1[C@H](CCCC(C)C)C(=O)O [Compound 102, 17(S),20(S),24,25-Tetrahydrofusidic Acid] | 0.02 µg/mL | 3.4 µg/mL | 0.009 µg/mL | 0.015 µg/mL | 0.016 µg/mL | MIC>64 μg/ml | 3.9 µg/mL | 0.12 µg/mL
CCC(=O)OC1CC2(C)C(CC(O)C3C4(C)CCC(O)C(C)C4CCC32C)C1C(CCC=C(C)C)C(=O)O [Compound 105, 16-Deacetoxy-16β-propionyloxy-17(S),20(S)-dihydrofusidic Acid] | 0.19 µg/mL | >64 µg/mL | 0.063 µg/mL | 0.08 µg/mL | 0.22 µg/mL | >64 µg/mL | 3.9 µg/mL | 0.24 µg/mL
CC(C)=CCCC(C(=O)O)C1C(OC(=O)C2CCCCC2)CC2(C)C1CC(O)C1C3(C)CCC(O)C(C)C3CCC12C [Compound 113, 16-Deacetoxy-16β-cyclohexylcarbonyloxy-17(S),20(S)-dihydrofusidic acid] | 16 µg/mL | 4 µg/mL | 16 µg/mL | >64 µg/mL | 16 µg/mL | >64 µg/mL | >64 µg/mL | 16 µg/mL
CCO[C@H]1C[C@@]2(C)[C@@H](C[C@@H](O)[C@H]3[C@@]4(C)CC[C@@H](O)[C@@H](C)[C@@H]4CC[C@@]32C)[C@H]1[C@H](CCC=C(C)C)C(=O)O [Compound 123, 16-Deacetoxy-16β-ethoxy-17(S),20(S)-dihydrofusidic Acid] | 0.02 µg/mL | 16 µg/mL | 0.007 µg/mL | 0.5 µg/mL | 0.02 µg/mL | 16 µg/mL | 16 µg/mL | 0.005 µg/mL
COCO[C@H]1C[C@@]2(C)[C@@H](C[C@@H](O)[C@H]3[C@@]4(C)CC[C@@H](O)[C@@H](C)[C@@H]4CC[C@@]32C)[C@H]1[C@H](CCC=C(C)C)C(=O)O [Compound 128, 16-Deacetoxy-16β-methoxymethoxy-17(S),20(S)-dihydrofusidic acid] | 0.19 µg/mL | 16 µg/mL | >64 µg/mL | 0.5 µg/mL | 0.26 µg/mL | 16 µg/mL | 16 µg/mL | >64 µg/mL
